Measurements from patent US10874743B2, “IRAK degraders and uses thereof” (Kymera Therapeutics, Inc., priority 2017, dated 2020).

Tests used:
OCI-LY10 cells = assay: OCI-LY-10 CTG cell viability assay (EC50); type: cell-based; conditions: Homo sapiens, 96 h, CellTiter-Glo cell viability, 4 days incubation, top concentration 10 μM, read-out: OCI-LY10 IRAK4 EC50
Method: A CTG cell viability assay using OCI-LY-10 cells was run to determine compound-mediated cell viability (EC50).
Compound-mediated viability effect on OCI-LY10 was quantitatively determined using the CellTiter-Glo® Luminescent Cell Viability Assay kit from Promega (Catalog number G7570) following manufacturer's recommended procedures. […] Compounds were then added to the assay plate with final top concentration of 10 μM and 1:3 dilution series with total of 9 doses. The final DMSO concentration was normalized to 0.2%. The assay plates were incubated at 37° C. for 4 days under 5% CO2. Then the assay plate was equilibrated at room temperature for 10 minutes. […] The data was then analyzed by software Prism 7.0 from GraphPad and the dose response curves were fit using a three-parameter logistic equation to calculate EC50.

IRAK4 = biological target: T1, IRAK4 (Homo sapiens, UniProt Q9NWZ3); assay: OCI-LY-10 MSD assay for IRAK4 DC50; type: cell-based; design: endogenous in cells; host or cells: OCI-LY10; conditions: OCI-LY10 cells, 4 hr incubation, concentration required to degrade 50% of protein
T1 sequence (Q9NWZ3 1-460): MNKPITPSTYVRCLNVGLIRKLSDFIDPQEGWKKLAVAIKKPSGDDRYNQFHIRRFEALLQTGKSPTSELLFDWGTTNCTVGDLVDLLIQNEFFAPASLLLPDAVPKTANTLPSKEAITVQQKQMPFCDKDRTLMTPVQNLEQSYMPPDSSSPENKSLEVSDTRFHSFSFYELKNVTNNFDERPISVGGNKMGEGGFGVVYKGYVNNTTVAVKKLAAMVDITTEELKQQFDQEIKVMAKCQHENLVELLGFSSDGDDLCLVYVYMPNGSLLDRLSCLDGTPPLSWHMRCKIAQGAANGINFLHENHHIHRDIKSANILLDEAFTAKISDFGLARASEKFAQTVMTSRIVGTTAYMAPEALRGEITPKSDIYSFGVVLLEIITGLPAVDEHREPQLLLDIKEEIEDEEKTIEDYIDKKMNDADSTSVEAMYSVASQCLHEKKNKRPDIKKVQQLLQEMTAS
Outline: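 OCI-Ly10 cells were exposed to compound for 4 hr across a 3-fold, 8-point dilution series. Lysates were made in RIPA buffer, and IRAK4 remaining was measured by MSD sandwich immunoassay with anti-IRAK4 capture and detection antibodies. DC50 was taken from a four-parameter logistic fit.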

Row | EC50 (OCI-LY10 cells) [nM] | DC50 (IRAK4) [nM] | Structure (SMILES)
1 | < 50 | 100 to 500 | Cn1c(=O)n([C@H]2CCC(=O)NC2=O)c2ccc(CCCCOCCCCNCc3ccc(-n4cc(NC(=O)c5coc(-c6ccnc(NCC7CC7)c6)n5)c(C(F)F)n4)cc3)cc21 (single isomer, unassigned) [I-699]
2 | 50 to 100 | < 50 | Cn1c(=O)n([C@@H]2CCC(=O)NC2=O)c2ccc(CCCCOCCCCNCc3ccc(-n4cc(NC(=O)c5coc(-c6ccnc(NCC7CC7)c6)n5)c(C(F)F)n4)cc3)cc21 (single isomer, unassigned) [I-700]
3 | > 1000 | > 1000 | Cn1cc(NC(=O)c2coc(-c3ccnc(NCC(F)(F)F)c3)n2)c(C(=O)NCCOCCOCCOCCOCCOCCNc2cccc3c2C(=O)N(C2CCC(=O)NC2=O)C3=O)n1 (centres unmarked) [I-449]
4 | > 1000 | > 1000 | CN(CCOCCOCCOCCNc1cccc2c1C(=O)N(C1CCC(=O)NC1=O)C2=O)C(=O)c1nn(C)cc1NC(=O)c1coc(-c2ccnc(NCC(F)(F)F)c2)n1 (centres unmarked) [I-456]
5 | < 50 | < 50 | Cn1c(=O)n(C2CCC(=O)NC2=O)c2ccc(CCCOCCCNC(=O)c3ccc(-n4cc(NC(=O)c5coc(-c6ccnc(NCC7CC7)c6)n5)c(C(F)F)n4)cc3)cc21 (centres unmarked) [I-459]
6 | < 50 | < 50 | Cn1c(=O)n(C2CCC(=O)NC2=O)c2cccc(CCCOCCCNC(=O)c3ccc(-n4cc(NC(=O)c5coc(-c6ccnc(NCC7CC7)c6)n5)c(C(F)F)n4)cc3)c21 (centres unmarked) [I-460]
7 | < 50 | < 50 | Cn1c(=O)n(C2CCC(=O)NC2=O)c2ccc(CCCOCCOCCNC(=O)c3ccc(-n4cc(NC(=O)c5coc(-c6ccnc(NCC7CC7)c6)n5)c(C(F)F)n4)cn3)cc21 (centres unmarked) [I-461]
8 | < 50 | < 50 | O=C1CCC(n2c(=O)oc3cc(CCCOCCOCCNC(=O)c4ccc(-n5cc(NC(=O)c6coc(-c7ccnc(NCC8CC8)c7)n6)c(C(F)F)n5)cc4)ccc32)C(=O)N1 (centres unmarked) [I-462]
9 | > 1000 | > 1000 | Cn1cc(NC(=O)c2coc(-c3ccnc(NCC(F)(F)F)c3)n2)c(C(=O)NCCOCCOCCOCCCc2ccc3c(c2)n(C)c(=O)n3C2CCC(=O)NC2=O)n1 (centres unmarked) [I-463]
10 | < 50 | < 50 | Cn1c(=O)n(C2CCC(=O)NC2=O)c2ccc(CCCOCCOCCNC(=O)c3ccc(-n4cc(NC(=O)c5coc(-c6ccnc(NCC7CC7)c6)n5)c(C(F)F)n4)cc3F)cc21 (centres unmarked) [I-470]
11 | > 1000 | > 1000 | Cn1cc(NC(=O)c2coc(-c3ccnc(NCC(F)(F)F)c3)n2)c(-c2cncc(C(=O)NCCOCCOCCCc3cccc4c3n(C)c(=O)n4C3CCC(=O)NC3=O)c2)n1 (centres unmarked) [I-472]
12 | 50 to 100 | < 50 | C=C1N(C)c2c(CCCOCCCN(C)C(=O)c3ccc(-n4cc(NC(=O)c5coc(-c6ccnc(NCC7CC7)c6)n5)c(C(F)F)n4)cc3)cccc2N1C1CCC(=O)NC1=O (centres unmarked) [I-473]
13 | < 50 | < 50 | O=C1CCC(n2c(=O)oc3c(CCCOCCCNC(=O)c4ccc(-n5cc(NC(=O)c6coc(-c7ccnc(NCC8CC8)c7)n6)c(C(F)F)n5)cc4)cccc32)C(=O)N1 (centres unmarked) [I-475]
14 | 100 to 500 | < 50 | CN(CCCOCCCc1cccc2c1oc(=O)n2C1CCC(=O)NC1=O)C(=O)c1ccc(-n2cc(NC(=O)c3coc(-c4ccnc(NCC5CC5)c4)n3)c(C(F)F)n2)cc1 (centres unmarked) [I-476]
15 | < 50 | < 50 | CN(CCCOCCCc1ccc2c(c1)n(C)c(=O)n2C1CCC(=O)NC1=O)C(=O)c1ccc(-n2cc(NC(=O)c3coc(-c4ccnc(NCC5CC5)c4)n3)c(C(F)F)n2)cc1 (centres unmarked) [I-477]
16 | 100 to 500 | 50 to 100 | CC(C)(CCOCCCc1cccc2c1oc(=O)n2C1CCC(=O)NC1=O)NC(=O)c1ccc(-n2cc(NC(=O)c3coc(-c4ccnc(NCC5CC5)c4)n3)c(C(F)F)n2)cc1 (centres unmarked) [I-478]
17 | < 50 | < 50 | O=C1CCC(n2c(=O)oc3c(CCCOCCCNC(=O)c4ccc(-n5cc(NC(=O)c6coc(-c7ccnc(NCC8CC8)c7)n6)c(C(F)F)n5)cn4)cccc32)C(=O)N1 (centres unmarked) [I-479]
18 | 50 to 100 | < 50 | CN(C[C@H]1CN(CCCc2ccc3c(c2)n(C)c(=O)n3C2CCC(=O)NC2=O)CCO1)C(=O)c1ccc(-n2cc(NC(=O)c3coc(-c4ccnc(NCC(F)(F)F)c4)n3)c(C(F)F)n2)cc1 (some centres unmarked) [I-487]
19 | < 50 | < 50 | CN(C[C@@H]1CN(CCCc2ccc3c(c2)n(C)c(=O)n3C2CCC(=O)NC2=O)CCO1)C(=O)c1ccc(-n2cc(NC(=O)c3coc(-c4ccnc(NCC5CC5)c4)n3)c(C(F)F)n2)cc1 (some centres unmarked) [I-488]
20 | 500 to 1000 | < 50 | CN(CCCCOCCCCc1ccc2c(c1)n(C)c(=O)n2C1CCC(=O)NC1=O)C(=O)c1ccc(-n2cc(NC(=O)c3coc(-c4ccnc(NCC(F)(F)F)c4)n3)c(C(N)=O)n2)cc1 (centres unmarked) [I-489]
21 | < 50 | < 50 | CN(C[C@H]1CN(CCCc2ccc3c(c2)n(C)c(=O)n3C2CCC(=O)NC2=O)CCO1)C(=O)c1ccc(-n2cc(NC(=O)c3coc(-c4ccnc(NCC5CC5)c4)n3)c(C(F)F)n2)cc1 (some centres unmarked) [I-490]
22 | < 50 | 50 to 100 | CN(CCCCOCCCCc1ccc2c(c1)n(C)c(=O)n2C1CCC(=O)NC1=O)C(=O)c1ccc(-n2cc(NC(=O)c3coc(-c4ccnc(NCC5CC5)c4)n3)c(C(F)F)n2)cc1 (centres unmarked) [I-491]
23 | 500 to 1000 | < 50 | CN(CCCOCCCc1cccc2c1oc(=O)n2C1CCC(=O)NC1=O)C(=O)c1ccc(-n2cc(NC(=O)c3coc(-c4ccnc(NCC(F)(F)F)c4)n3)c(C(N)=O)n2)cc1 (centres unmarked) [I-495]
24 | < 50 | < 50 | CN(CC1CCN(CCC#Cc2ccc3c(c2)n(C)c(=O)n3C2CCC(=O)NC2=O)CC1)C(=O)c1ccc(-n2cc(NC(=O)c3coc(-c4ccnc(NCC5CC5)c4)n3)c(C(F)F)n2)cc1 (centres unmarked) [I-504]
25 | < 50 | < 50 | Cn1c(=O)n(C2CCC(=O)NC2=O)c2ccc(CN3CCN(CCO[C@H]4C[C@H](NC(=O)c5ccc(-n6cc(NC(=O)c7coc(-c8ccnc(NCC9CC9)c8)n7)c(C(F)F)n6)cc5)C4)CC3)cc21 (some centres unmarked) [I-506]
26 | 50 to 100 | < 50 | O=C1CCC(N2C[C@H](c3cccc(C#CCN4CCO[C@@H](CNC(=O)c5ccc(-n6cc(NC(=O)c7coc(-c8ccnc(NCC9CC9)c8)n7)c(C(F)F)n6)cc5)C4)c3)OC2=O)C(=O)N1 (some centres unmarked) [I-508]
27 | < 50 | < 50 | O=C1CCC(N2C[C@H](c3ccc(C#CCN4CCO[C@@H](CNC(=O)c5ccc(-n6cc(NC(=O)c7coc(-c8ccnc(NCC9CC9)c8)n7)c(C(F)F)n6)cc5)C4)cc3)OC2=O)C(=O)N1 (some centres unmarked) [I-509]
28 | < 50 | < 50 | CN(C[C@H]1CN(CCCc2cccc3c2n(C)c(=O)n3C2CCC(=O)NC2=O)CCO1)C(=O)c1ccc(-n2cc(NC(=O)c3coc(-c4ccnc(NCC5CC5)c4)n3)c(C(F)F)n2)cc1 (some centres unmarked) [I-513]
29 | < 50 | < 50 | CN(C[C@@H]1CN(CCCc2cccc3c2n(C)c(=O)n3C2CCC(=O)NC2=O)CCO1)C(=O)c1ccc(-n2cc(NC(=O)c3coc(-c4ccnc(NCC5CC5)c4)n3)c(C(F)F)n2)cc1 (some centres unmarked) [I-514]
30 | > 1000 | < 50 | Cn1c(=O)n(C2CCC(=O)NC2=O)c2ccc(CCCOCCOC3CCN(C(=O)c4ccc(-n5cc(NC(=O)c6coc(-c7ccnc(NCC8CC8)c7)n6)c(C(F)F)n5)cc4)CC3)cc21 (centres unmarked) [I-517]

Row | Structure (SMILES) | EC50 (OCI-LY10 cells) [nM] | DC50 (IRAK4) [nM]
31 | CN[C@@H](C)C(=O)N[C@H](C(=O)N1Cc2cc(OCCOCCOCCOCCOCCNC(=O)c3ccc(-n4cc(NC(=O)c5coc(-c6ccnc(NCC7CC7)c6)n5)c(C(F)F)n4)cc3)ccc2C[C@H]1C(=O)N[C@@H]1CCCc2ccccc21)C(C)(C)C [I-519, 2-[2-(Cyclopropylmethylamino)-4-pyridyl]-N-[3-(difluoromethyl)-1-[4-[2-[2-[2-[2-[2-[[(3S)-2-[(2S)-3,3-dimethyl-2-[[(2S)-2-(methylamino)propanoyl]amino]butanoyl]-3-[[(1R)-tetralin-1-yl]carbamoyl]-3,4-dihydro-1H-isoquinolin-7-yl]oxy]ethoxy]ethoxy]ethoxy]ethoxy]ethylcarbamoyl]phenyl]pyrazol-4-yl]oxazole-4-carboxamide] | 500 to 1000 | 500 to 1000
